For data set [1], the system named is valproic acid (VPA)-induced autism model mice. The data set can be described thus: Three-chamber test of social interaction in VPA-induced autism model mice. In kind it is in vivo. To be noted: oral, 14 days from day 21 after birth; 3-chamber test 35 days after birth; versus vehicle-treated VPA mice. The procedure:
In order to perform a behavioral experiment on valproic acid (VPA)-induced autism model mice using L-serine hydrochloride prepared in Example 3, 600 mg/kg of VPA dissolved in 0.9% NaCl saline was administered subcutaneously to pregnant dams to obtain 14 VPA-induced autism model mice. Meanwhile, 8 pups born to the dams that were not administered VPA were used as a control group. […] The drug was orally administered at a dose of 10 mL/kg per day based on the individual's body weight, which is equivalent, on a molar basis, to administering 400 mg/kg of L-serine hydrochloride to humans.
Thirty-five days after birth, the mice's social interaction abilities were tested using a three-chamber test. Social novelty was evaluated based on the interaction time during an initial encounter with a novel mouse compared with a re-encounter with a familiar mouse. Sociability reflects the degree of social interaction between a mouse and another mouse, and was measured by evaluating the interaction time that the mouse spent interacting with another mouse located in one side of an empty chmber.

Data set [2] is described as follows: Mouse PK experiment (serum levels by LC-MS/MS).
Protocol: (§1) -6, -4, -2, and 0 hours before drug administration and 0.25, 0.5, 1, 3, 6, 9, and 12 hours after drug administration, the experimental mice were placed in a restrainer, a 2 mm incision was made at the tip of the tail, and about 40-50 µL of blood was collected into a heparin capillary tube while massaging the tail. […] Blood samples were transferred to 2 mL tubes and centrifuged at 2000× g for 10 minutes to separate the serum, which was then transferred to new tubes at about 20-25 µL per sample. […] The internal standard D, L-serine-2,3,3-d3 stock solution was prepared at a concentration of 60 µg/mL for preparing a calibration curve and at 2 µg/mL for spiking into samples. To prepare the reagents required for creating the calibration curve, 10 µL of the diluted stock solution and 10 µL of the internal standard solution (D, L-serine-2,3,3-d3, 60 µg/mL) were spiked into 980 µL of a solvent with a ratio of acetonitrile/water/trifluoroacetic acid (v/v/v, 96/5/0.5). […] The mixed solution was centrifuged at 16,000 g for 10 minutes, and the supernatant was separated and injected into LC-MS/MS at a volume of 5 µL. The ultra-high-performance liquid chromatography system consisted of a pump (LC-40D X3), an autosampler (SIL-40CX3), a column oven (CTO-40C), and a system controller (SCL-40) from Shimadzu (Duisburg, Germany), and the mass spectrometer used was a QTRQP LC-MS/MS 6500+ from SCIEX (Framingham, MA, USA). The column used was a CROWNPAK CR-I (+) [3.0 x 150 mm, 5 micron] from DAICEL (Osaka, Tokyo), and the column oven was set to 30°C. Acetonitrile/water/trifluoroacetic acid (v/v/v, 96/5/0.5) was used as the mobile phase, and the elution was performed under isocratic conditions. Mass spectrometry detection was performed under multiple reaction monitoring (MRM) conditions in ESI+ mode. MS/MS parameters were ion spray voltage, 5500 V; temperature 500°C; curtain gas, 30 psi; ion source gas (GS1), 50 psi, ion source gas (GS2), 50 psi. The declustering potential (DP), entrance potential (EP), collision energy (CE), and collision cell exit potential (CXP) values under MRM conditions were optimized in manual tuning mode using a syringe infusion pump, and mass spectrometric analysis was performed. Data acquisition and processing were performed using AB SCIEX Analyst software.
The nature of data set [3]: Storage stability in aqueous solution (discoloration, precipitation). In kind it is physicochemical. To be noted: stored in an aqueous solution at room temperature for one month.
The nature of data set [4]: in vivo. Conditions: mouse.
Protocol: as §1
The conditions of data set [5]: mouse, in vivo.
Protocol: as §1

Like-named read-outs stand apart in the source and are kept apart here.

As for `Cl.N[C@@H](CO)C(=O)O` [L-Serine Hydrochloride (Example 3), L-serine hydrochloride], in data set [1], the sociability entry is recorded as “statistically significant improvements” and the social novelty entry was “statistically significant improvements”. Also, the Cl/F in data set [2] (mouse PK, serum) is recorded as 3.77±0.94 (mg/kg)/(µg/mL)/h. In addition, in data set [2] (mouse, in vivo), the AUC(0-t) amounted to 141 ± 37.4 µg·h/mL, the peak concentration (Cmax) was 77.7 ± 8.49 µg/mL, the Tmax was determined as 37.2 min and the half-life was 108 ± 16.2 min. The discoloration or precipitation entry in data set [3] was “no discoloration or precipitation occurred”.

`N[C@@H](CO)C(=O)O` [L-Serine, L-serine]: in data set [4], the AUC(0-t) was determined as 81.5 ± 22.5 µg·h/mL, the highest level (Cmax) was 67.5 ± 25.9 µg/mL, the Tmax worked out at 15 min and the half-life is 72.6 ± 28.8 min. Further, in data set [5], the Cl/F is 4.92±1.20 (mg/kg)/(µg/mL)/h.

The record behind these values is patent EP4818152A1, “METHOD FOR PREPARING L-SERINE HYDROCHLORIDE AND USE THEREOF” (Astrogen, Inc., priority 2023, dated 2025).
